Species on record: Rattus norvegicus
Test: Open TG-GATES - Regimen: Daily Repeat
Type: toxicity, organism-based, Sprague-Dawley
Parameters: regimen Daily Repeat, gender Male, age 6 weeks
Conditions: in vivo, po, 120 mg/kg, route gavage, dose level Middle; for APTT / Bas / Eos / Fbg / Hb / Ht / Lym / MCH / MCHC / MCV / Mono / Neu / PT / Plat / RBC / Ret / WBC: tissue Blood; for KIDNEY_L / KIDNEY_R / KIDNEY_TOTAL: tissue Kidney; for LIVER: tissue Liver; for A/G / ALP / ALT / AST / BUN / CRE / Ca / Cl / DBIL / GLC / IP / K / LDH / Na / PL / RALB / TBIL / TC / TG / TP / gamma-GTP: tissue Plasma

In the case of `Cc1cccc(C)c1OCC(C)N` (configuration not stated) [MEXILETINE], the TERMINAL_BW (72 h, time 3 day) is reported as 236.3 g, the APTT (72 h, time 3 day) is reported as 21.8 s and the Bas (72 h, time 3 day) is reported as 0%. For the same compound, the Eos (72 h, time 3 day) was 0.8%, the Fbg (72 h, time 3 day) was 325.2 mg/dL and the Hb (72 h, time 3 day) was 12.9 g/dL. The Ht (72 h, time 3 day) was 40.1%, the Lym (72 h, time 3 day) was 74% and the MCH (72 h, time 3 day) was 19.7 pg. The MCHC (72 h, time 3 day) was 32.3%, the MCV (72 h, time 3 day) was 61.1 fL and the Mono (72 h, time 3 day) was 2.6%. For the same compound, the Neu (72 h, time 3 day) was 21.6%, the PT (72 h, time 3 day) was 15.3 s and the Plat (72 h, time 3 day) was 115.5 x10_4/uL. It also gave an RBC (72 h, time 3 day) of 656.6 x10_4/ul, a Ret (72 h, time 3 day) of 6.1% and a WBC (72 h, time 3 day) of 96.8 x10_2/uL. For the same compound, the KIDNEY_L (72 h, time 3 day) was 1 g, the KIDNEY_R (72 h, time 3 day) was 1 g and the KIDNEY_TOTAL (72 h, time 3 day) was 2 g. For the same compound, the LIVER (72 h, time 3 day) was 11.5 g, the A/G (72 h, time 3 day) was 1.3 and the ALP (72 h, time 3 day) was 1686.2 IU/L. The ALT (72 h, time 3 day) was 48.6 IU/L, the AST (72 h, time 3 day) was 73.4 IU/L and the BUN (72 h, time 3 day) was 16.6 mg/dL. The CRE (72 h, time 3 day) was 0.1 mg/dL, the Ca (72 h, time 3 day) was 10.8 mg/dL and the Cl (72 h, time 3 day) was 106.2 meq/L. For the same compound, the DBIL (72 h, time 3 day) was 0 mg/dL, the GLC (72 h, time 3 day) was 197 mg/dL and the IP (72 h, time 3 day) was 8 mg/dL. For the same compound, the K (72 h, time 3 day) was 4.3 meq/L, the LDH (72 h, time 3 day) was 181.2 IU/L and the Na (72 h, time 3 day) was 141.6 meq/L. The PL (72 h, time 3 day) was 168 mg/dL, the RALB (72 h, time 3 day) was 3.2 g/dL and the TBIL (72 h, time 3 day) was 0.002 mg/dL. It also gave a TC (72 h, time 3 day) of 91.2 mg/dL, a TG (72 h, time 3 day) of 150.2 mg/dL and a TP (72 h, time 3 day) of 5.7 g/dL. It also gave a gamma-GTP (72 h, time 3 day) of 1.8 IU/L, a TERMINAL_BW ([…], time 7 day) of 275.9 g and a TERMINAL_BW ([…], time 14 day) of 328.1 g. The TERMINAL_BW ([…], time 28 day) was 389.9 g, the APTT ([…], time 7 day) was 22.2 s and the Bas ([…], time 7 day) was 0%. It also gave an Eos ([…], time 7 day) of 0.8%, a Fbg ([…], time 7 day) of 321.2 mg/dL and a Hb ([…], time 7 day) of 13.1 g/dL. The Ht ([…], time 7 day) was 40.4%, the Lym ([…], time 7 day) was 77.8% and the MCH ([…], time 7 day) was 20.5 pg. The MCHC ([…], time 7 day) was 32.4%, the MCV ([…], time 7 day) was 63.3 fL and the Mono ([…], time 7 day) was 2.4%. It also gave a Neu ([…], time 7 day) of 18.4%, a PT ([…], time 7 day) of 15.6 s and a Plat ([…], time 7 day) of 105.3 x10_4/uL. For the same compound, the RBC ([…], time 7 day) was 638 x10_4/ul, the Ret ([…], time 7 day) was 6.2% and the WBC ([…], time 7 day) was 107.1 x10_2/uL. For the same compound, the APTT ([…], time 14 day) was 21.8 s, the Bas ([…], time 14 day) was 0% and the Eos ([…], time 14 day) was 0.4%. It also gave a Fbg ([…], time 14 day) of 310.2 mg/dL, a Hb ([…], time 14 day) of 13.1 g/dL and a Ht ([…], time 14 day) of 40.6%. It also gave a Lym ([…], time 14 day) of 83.2%, an MCH ([…], time 14 day) of 20.1 pg and an MCHC ([…], time 14 day) of 32.2%. For the same compound, the MCV ([…], time 14 day) was 62.6 fL, the Mono ([…], time 14 day) was 2% and the Neu ([…], time 14 day) was 13.6%. For the same compound, the PT ([…], time 14 day) was 15.9 s, the Plat ([…], time 14 day) was 113.4 x10_4/uL and the RBC ([…], time 14 day) was 648.8 x10_4/ul. The Ret ([…], time 14 day) was 7.3%, the WBC ([…], time 14 day) was 96 x10_2/uL and the APTT ([…], time 28 day) was 23.8 s. It also gave a Bas ([…], time 28 day) of 0%, an Eos ([…], time 28 day) of 1.8% and a Fbg ([…], time 28 day) of 328.2 mg/dL. For the same compound, the Hb ([…], time 28 day) was 15.1 g/dL, the Ht ([…], time 28 day) was 44% and the Lym ([…], time 28 day) was 74%. It also gave an MCH ([…], time 28 day) of 19.4 pg, an MCHC ([…], time 28 day) of 34.4% and an MCV ([…], time 28 day) of 56.6 fL. It also gave a Mono ([…], time 28 day) of 2.4%, a Neu ([…], time 28 day) of 21.2% and a PT ([…], time 28 day) of 15.6 s. The Plat ([…], time 28 day) was 94.2 x10_4/uL, the RBC ([…], time 28 day) was 777 x10_4/ul and the Ret ([…], time 28 day) was 3.1%. The WBC ([…], time 28 day) was 93 x10_2/uL, the KIDNEY_L ([…], time 7 day) was 1.1 g and the KIDNEY_R ([…], time 7 day) was 1.1 g. It also gave a KIDNEY_TOTAL ([…], time 7 day) of 2.2 g, a KIDNEY_L ([…], time 14 day) of 1.3 g and a KIDNEY_R ([…], time 14 day) of 1.3 g. For the same compound, the KIDNEY_TOTAL ([…], time 14 day) was 2.6 g, the KIDNEY_L ([…], time 28 day) was 1.5 g and the KIDNEY_R ([…], time 28 day) was 1.5 g. For the same compound, the KIDNEY_TOTAL ([…], time 28 day) was 2.9 g, the LIVER ([…], time 7 day) was 13.2 g and the LIVER ([…], time 14 day) was 14.8 g. The LIVER ([…], time 28 day) was 16.8 g, the A/G ([…], time 7 day) was 1.2 and the ALP ([…], time 7 day) was 1567.6 IU/L. For the same compound, the ALT ([…], time 7 day) was 45 IU/L, the AST ([…], time 7 day) was 69.8 IU/L and the BUN ([…], time 7 day) was 18.4 mg/dL. For the same compound, the CRE ([…], time 7 day) was 0.1 mg/dL, the Ca ([…], time 7 day) was 11 mg/dL and the Cl ([…], time 7 day) was 104.8 meq/L. The DBIL ([…], time 7 day) was 0 mg/dL, the GLC ([…], time 7 day) was 188.6 mg/dL and the IP ([…], time 7 day) was 7.8 mg/dL. For the same compound, the K ([…], time 7 day) was 4.2 meq/L, the LDH ([…], time 7 day) was 145.6 IU/L and the Na ([…], time 7 day) was 142 meq/L. It also gave a PL ([…], time 7 day) of 163.2 mg/dL, an RALB ([…], time 7 day) of 3 g/dL and a TBIL ([…], time 7 day) of 0.004 mg/dL. For the same compound, the TC ([…], time 7 day) was 81.2 mg/dL, the TG ([…], time 7 day) was 148 mg/dL and the TP ([…], time 7 day) was 5.6 g/dL. It also gave a gamma-GTP ([…], time 7 day) of 1.6 IU/L, an A/G ([…], time 14 day) of 1.1 and an ALP ([…], time 14 day) of 1443.2 IU/L. For the same compound, the ALT ([…], time 14 day) was 43.2 IU/L, the AST ([…], time 14 day) was 74.6 IU/L and the BUN ([…], time 14 day) was 19.4 mg/dL. The CRE ([…], time 14 day) was 0.2 mg/dL, the Ca ([…], time 14 day) was 10.5 mg/dL and the Cl ([…], time 14 day) was 107.2 meq/L. For the same compound, the DBIL ([…], time 14 day) was 0 mg/dL, the GLC ([…], time 14 day) was 190.6 mg/dL and the IP ([…], time 14 day) was 6.5 mg/dL. For the same compound, the K ([…], time 14 day) was 4.4 meq/L, the LDH ([…], time 14 day) was 157.8 IU/L and the Na ([…], time 14 day) was 140.6 meq/L. It also gave a PL ([…], time 14 day) of 160 mg/dL, an RALB ([…], time 14 day) of 2.9 g/dL and a TBIL ([…], time 14 day) of 0.002 mg/dL. The TC ([…], time 14 day) was 80.8 mg/dL, the TG ([…], time 14 day) was 155.6 mg/dL and the TP ([…], time 14 day) was 5.7 g/dL. The gamma-GTP ([…], time 14 day) was 2.2 IU/L, the A/G ([…], time 28 day) was 1 and the ALP ([…], time 28 day) was 977 IU/L. It also gave an ALT ([…], time 28 day) of 42.4 IU/L, an AST ([…], time 28 day) of 68.8 IU/L and a BUN ([…], time 28 day) of 16.2 mg/dL. It also gave a CRE ([…], time 28 day) of 0.2 mg/dL, a Ca ([…], time 28 day) of 10.4 mg/dL and a Cl ([…], time 28 day) of 105.6 meq/L. For the same compound, the DBIL ([…], time 28 day) was 0 mg/dL, the GLC ([…], time 28 day) was 201.6 mg/dL and the IP ([…], time 28 day) was 6 mg/dL. For the same compound, the K ([…], time 28 day) was 3.7 meq/L, the LDH ([…], time 28 day) was 158.2 IU/L and the Na ([…], time 28 day) was 142.8 meq/L. It also gave a PL ([…], time 28 day) of 157.8 mg/dL, an RALB ([…], time 28 day) of 3.1 g/dL and a TBIL ([…], time 28 day) of 0.012 mg/dL. The TC ([…], time 28 day) was 80.2 mg/dL, the TG ([…], time 28 day) was 145.2 mg/dL and the TP ([…], time 28 day) was 6.1 g/dL. The gamma-GTP ([…], time 28 day) was 2 IU/L.

Source: ChEMBL document CHEMBL3885861, “Open TG-GATES”
